pIC50: −log10 of the molar value.

This is an account of results in article PMC5437278, “Targeting the deubiquitinase STAMBP inhibits NALP7 inflammasome activity” (Nature Communications, 2017).

For the assay, the target named is T1, STAMBP (purified, recombinant) (Homo sapiens, UniProt O95630).
T1 construct: commercial purified recombinant STAMBP (R&D Systems E-548B)
T1 sequence (O95630 1-424): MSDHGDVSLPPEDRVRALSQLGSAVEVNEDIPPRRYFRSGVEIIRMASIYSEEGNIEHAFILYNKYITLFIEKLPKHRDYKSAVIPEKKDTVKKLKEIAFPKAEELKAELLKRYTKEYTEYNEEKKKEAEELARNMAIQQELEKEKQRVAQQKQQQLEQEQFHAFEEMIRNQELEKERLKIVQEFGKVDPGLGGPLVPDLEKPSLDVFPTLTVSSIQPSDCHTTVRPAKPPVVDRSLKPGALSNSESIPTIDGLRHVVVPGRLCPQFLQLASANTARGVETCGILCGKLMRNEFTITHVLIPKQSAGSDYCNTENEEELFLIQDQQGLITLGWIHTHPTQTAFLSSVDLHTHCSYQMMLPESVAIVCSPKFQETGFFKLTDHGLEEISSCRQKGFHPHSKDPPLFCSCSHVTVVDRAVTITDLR
Put plainly: in vitro DUB assay, cleavage of K63-linked di-ubiquitin to mono-Ub, immunoblot. The class given is biochemical. The note with it: 200 nM K63-linked di-Ub, 25 nM STAMBP, pH 7.5, 37 °C, 2 h; competitive.

For the substance BC-1471, the pIC50 was 6.48.
